Assay results: patent EP0726257A1, “1-(Hetero)Arylvinyl-5H-2,3-benzodiazepine derivatives useful for the treatment of central nervous system disorders, and benzopyrylium intermediates for their preparation” (EGIS GYOGYSZERGYAR RT., priority 1995, dated 1996)
Read-outs that look alike come from different tables or passages of the source.

Assays:
[1] = molecular target: homophthalazine binding site; assay: Displacement of 3H-girisopam from the homophthalazine binding site in rat brain striatal membrane preparation; settings: displacing 5 nM 3H-girisopam
Procedure: Ki values were calculated according to the following equation: Ki = IC50 :(1 +([L])/(KD)), [formula] wherein KD is the dissociation constant of the labelled ligand-receptor complex, [L] is the concentration of the labelled ligand and IC50 is the half maximal inhibitory concentration of the test compound.

[2] = test system: "climbing" reaction induced by 5,6,6a,7-tetra-(hydro)-6-(methyl)-4H-dibenzo[de,g]quinoline-10,11-di-(ol){apomorphine}; assay: Inhibition of apomorphine-induced climbing according to Puech et al.; assay type: in vivo
Procedure: (§1) The potential antipsychotic activity of 1-[2'-(substituted) vinyl]-5H-2,3-benzodiazepine derivatives according to the invention and of reference substances was tested according to the method of Puech et al. (Psychopharmacology, 75, 84, [1981] by measuring their inhibiting effect on the "climbing" reaction induced by 5,6,6a,7-tetra-(hydro)-6-(methyl)-4H-dibenzo[de,g]quinoline-10,11-di-(ol){apomorphine}. The results have been expressed as ED50 values. Since the inhibition of the spontaneous motor activity (SMA) is an important characteristic of the antipsychotic drugs, the ED50 values of a number of compounds were determined according to the method of Borsy et al. (Arch. Int. Pharmacodyn., 124, 1, 196).

rats [3] = assay: Elevated plus-maze test (Pellow), anxiolytic activity; assay type: in vivo; settings: Rattus norvegicus, ip, read-out: Minimal effective dose [MED] Elevated + Maze
Excerpt: (§2) The anxiolytic activity was studied in rats according to the "lick-conflict" test elaborated by Vogel et al. (Psychopharmacology, 21, 1, [1971] and the elevated plus-maze test described by Pellow (Pellow, J.: Neurosci. Meth. 14, 149, [1985]). The antiaggressive effect was investigated in mice using the "fighting behaviour" method of Tedeschi (J. Pharm. Exp. Ther., 125, 28, [1959]). The minimal effective dose (MED) values and the ED50 values obtained are shown in the following Table V.
The anxiolytic activity of these compounds was investigated in the elevated plus maze test. Male rats belonging to the Sprague Dawley strain and weighing 220 to 260 g were used as test animals. The test was carried out with the aid of a wooden plus-shaped maze elevated to a height of 50 cm and containing two enclosed and two open arms (50 cm long and 15 cm wide). After 60 minutes pretreatment the animals were placed into the maze and observed for 5 minutes. The drug effect was expressed as percent increase of the time spent on the open arms and number of open arm entries. The minimum effective dose (MED) which caused a significant increase of the time spent on the open arms was calculated for every substance [Pelow, S., Chopin, P., File, S.E., Briley, M.: J. Neurosci. Methods 14, 149 to 167 [1985]).

mice [4] = assay: Fighting behaviour method of Tedeschi, antiaggressive effect; assay type: in vivo; settings: Mus musculus, po, read-out: ED50 Fighting behaviour
Excerpt: as §2

[5] = test system: spontaneous motor activity (SMA) in mice; assay: Behavioural effects according to Irwin (decrease in spontaneous motor activity); assay type: in vivo; parameters: key: ++ strong; + moderate; +- slight decrease in spon-taneous motor activity [SMA]
Procedure: (§3) The behavioural effects of 1-[2'-(substituted) vinyl]-5H-2,3-benzodiazepine derivatives according to the invention and of reference substances were measured according to the method of Irwin (Psychopharmacology, 13, 222 [1968]). The results and the acute toxicity data (dead/treated animals, shown in brackets) can be seen in the following Table II
(§4) From the above Table II it can be taken that the 1-[2'-(substituted) vinyl]-5H-2,3-benzodiazepine derivatives according to the invention considerably decrease the spontaneous motor activity (SMA) in mice after intraperitoneal or oral administration.

mice [6] = assay: Acute toxicity (dead/treated animals) in the Irwin test; assay type: in vivo
Procedure: as §3, §4

[7] = test system: convulsions caused by 6,7,8,9-tetrahydro-5H-tetrazoloazepine [pentetrazole]; assay: Inhibition of pentetrazole-induced convulsions (modified method of Benziger and Hane); assay type: in vivo; settings: Mus musculus, po, mice, read-out: ID50 (the source's name)
Procedure: The inhibiting effect against convulsions caused by 6,7,8,9-tetrahydro-5H-tetrazoloazepine [pentetrazole] was defined by the modified method of Benziger and Hane. Groups of male and female mice belonging to the NMRI strain and weighing 20 to 25 g were used. The tonic extensor convulsions of the hind limbs caused by intraperitoneally administered 125 mg/kg of 6,7,8,9-tetrahydro-5H-tetrazoloazepine [pentetrazole] were registered on the animals of groups consisting of 6 to 12 animals. The test compounds and the carrier were administered 1 hour before administering the 6,7,8,9-tetrahydro-5H-tetrazoloazepine [pentetrazole] (Benziger, R., Hane, D.: Arch. Int. Pharmacodyn. 167, 245 [1967]).

[8] = test system: spontaneous motor activity of mice; assay: Inhibition of spontaneous motor activity according to Borsy et al.; assay type: in vivo; settings: Mus musculus, po, read-out: Spontaneous motor activity SMA ED50
Procedure: as §1
The effect of the 1-[2'-(substituted) vinyl]-5H-2,3-benzodiazepine derivatives according to the invention on the spontaneous motor activity was tested according to the method of Borsy et al. Groups consisting of 3 mice were treated orally with different doses of the compounds to be tested. Then the animals were placed into a 10-channel Dews system equipment, wherein the number of interruptions of infrared beam within 30 minutes was counted. […]

rats [9] = assay: Lick-conflict test (Vogel et al.), anxiolytic activity; assay type: in vivo; settings: Rattus norvegicus, po, read-out: Minimal effective dose [MED] Lick conflict
Excerpt: as §2

[10] = Cataleptic effect in mice (Schlichtegroll); assay type: in vivo; settings: mouse, in vivo, Tables III and IV compared, read-out: dose causing catalepsy on mice relative to the spontaneous motor activity (SMA) decreasing ED50 dose
Procedure: (§5) The cataleptic effect of the compounds was measured both in mice (Schlichtegroll: Arzneim. Forsch., 8, 489, [1958]) and in rats (Morpurgo: Arch. Int. Pharmacodyn., 137, 87, [1962]).

Catalepsy in mice = assay: Cataleptic effect in mice (Schlichtegroll); assay type: in vivo; settings: p.o.
Procedure: as §5

Catalepsy in rats = assay: Cataleptic effect in rats (Morpurgo); assay type: in vivo; settings: p.o.
Procedure: as §5

[11] = po; read-out: {apomorphine} Climbing ED50
[12] = po, read-out: {apomorphine} Climbing ED50

Compound: COc1cc2c(cc1OC)C(C=Cc1ccc(N)cc1)=NN=C(C)C2 [Example 73, 1-[4'-(Amino)-styryl]-4-[methyl]-7,8-di-[methoxy]-5H-2,3-benzodiazepine]
- Ki [1]: 11 nM
- ED50 [2, 11]: 1.8 mg/kg
- minimal effective dose (rats [3]; rats): 2.5 mg/kg
- ED50 (mice [4]; mice): 6.4 mg/kg

Compound: COc1cc2c(cc1OC)C(C=Cc1ccc(NC(C)=O)cc1)=NN=C(C)C2 [Example 84, 1-[4'-(Acetylamino)-styryl]-4-[methyl]-7,8-di-[methoxy]-5H-2,3-benzodiazepine]
- Ki [1]: 5 nM
- Behaviour ([5]; 300 mg/kg i.p.): + +
- Behaviour ([5]; 1000 mg/kg p.o.): + +
- acute toxicity (dead/treated animals) (mice [6]; 300 mg/kg i.p.): 0/5
- acute toxicity (dead/treated animals) (mice [6]; 1000 mg/kg p.o.): 1/5
- ED50 [2, 11]: 11 mg/kg

Compound: NC(=O)N1c2ccccc2C=Cc2ccccc21 [carbamazepine, 5H-dibenz[b,f]azepine-5-carboxamide]
- ED50 [7]: 7.1 mg/kg

Compound: CNC1=Nc2ccc(Cl)cc2C(c2ccccc2)=[N+]([O-])C1 [chlorodiazepoxide, 7-(chloro)-2-(methylamino)-5-(phenyl)-3H-1,4-benzodiazepine-4-(oxide), reference compound]
- ED50 [8]: 56 mg/kg
- {apomorphine} Climbing ED50 ([2]; p.o.): inactive
- minimal effective dose (rats [9]): 5 mg/kg
- minimal effective dose (rats [3]): 2.5 mg/kg
- ED50 (mice [4]): 9.2 mg/kg

Compound: CN(C)CCCN1c2ccccc2Sc2ccc(Cl)cc21 [chlorpromazine, 2-(chloro)-10-(3'-〈dimethylamino〉-propyl)-phenothiazine, reference compound]
- ED50 [8]: 2 mg/kg
- ED50 [2, 12]: 1.1 mg/kg
- selectivity ratio [10]: 5
- Catalepsy in mice Minimal effective dose [MED] (Catalepsy in mice): 10 mg/kg
- Catalepsy in rats Minimal effective dose [MED] (Catalepsy in rats): 20 mg/kg

Compound: COc1cc2c(cc1OC)C(c1cccc(Cl)c1)=NN=C(C)C2 [girisopam, 1-(3'-〈chloro〉-phenyl)-4-(methyl)-7,8-di-(methoxy)-5H-2,3-benzodiazepine, reference compound]
- Ki [1]: 40 nM
- Behaviour ([5]; 300 mg/kg i.p.): +-
- acute toxicity (dead/treated animals) (mice [6]; 300 mg/kg i.p.): 0/6
- ED50 [8]: 10 mg/kg
- ED50 [2, 12]: 12 mg/kg
- minimal effective dose (rats [9]): 10 mg/kg
- minimal effective dose (rats [3]): 12.5 mg/kg
- ED50 (mice [4]): 7.7 mg/kg

Compound: COc1cc2c(cc1OC)C(c1ccc(N)cc1)=NN=C(C)C2 [nerisopam, 1-(4'-〈amino〉-phenyl)-4-(methyl)-7,8-di-(methoxy)-5H-2,3-benzodiazepine, reference compound]
- Behaviour ([5]; 300 mg/kg i.p.): + +
- acute toxicity (dead/treated animals) (mice [6]; 300 mg/kg i.p.): 5/6
- ED50 [8]: 2.5 mg/kg
- ED50 [2, 12]: 0.9 mg/kg
- Catalepsy in mice Minimal effective dose [MED] (Catalepsy in mice): 40 mg/kg
- Catalepsy in rats Minimal effective dose [MED] (Catalepsy in rats): 60 mg/kg
- minimal effective dose (rats [9]): 0.3 mg/kg
- minimal effective dose (rats [3]): 0.3 mg/kg
- ED50 (mice [4]): 4 mg/kg
